Measurements: paper PMC9516332 (Frontiers in Oncology, 2022)

How the values were obtained:
Assay in all cases: Kinase panel profiling at 1 µmol/L (MSA or IMAP), percentage inhibition
Assay type in all cases: biochemical
[1] = target: panel of 255 wild-type kinases (Homo sapiens, UniProt P22612); conditions: kinase PKACγ; 1 µmol/L single concentration; read-out: %-inhibition at 1 µmol/L, PKACγ
[2] = target: T1, panel of 255 wild-type kinases (Homo sapiens, UniProt P29322); conditions: kinase EPHA8; 1 µmol/L single concentration; read-out: %-inhibition at 1 µmol/L, EPHA8
T1 sequence (P29322 28-1005): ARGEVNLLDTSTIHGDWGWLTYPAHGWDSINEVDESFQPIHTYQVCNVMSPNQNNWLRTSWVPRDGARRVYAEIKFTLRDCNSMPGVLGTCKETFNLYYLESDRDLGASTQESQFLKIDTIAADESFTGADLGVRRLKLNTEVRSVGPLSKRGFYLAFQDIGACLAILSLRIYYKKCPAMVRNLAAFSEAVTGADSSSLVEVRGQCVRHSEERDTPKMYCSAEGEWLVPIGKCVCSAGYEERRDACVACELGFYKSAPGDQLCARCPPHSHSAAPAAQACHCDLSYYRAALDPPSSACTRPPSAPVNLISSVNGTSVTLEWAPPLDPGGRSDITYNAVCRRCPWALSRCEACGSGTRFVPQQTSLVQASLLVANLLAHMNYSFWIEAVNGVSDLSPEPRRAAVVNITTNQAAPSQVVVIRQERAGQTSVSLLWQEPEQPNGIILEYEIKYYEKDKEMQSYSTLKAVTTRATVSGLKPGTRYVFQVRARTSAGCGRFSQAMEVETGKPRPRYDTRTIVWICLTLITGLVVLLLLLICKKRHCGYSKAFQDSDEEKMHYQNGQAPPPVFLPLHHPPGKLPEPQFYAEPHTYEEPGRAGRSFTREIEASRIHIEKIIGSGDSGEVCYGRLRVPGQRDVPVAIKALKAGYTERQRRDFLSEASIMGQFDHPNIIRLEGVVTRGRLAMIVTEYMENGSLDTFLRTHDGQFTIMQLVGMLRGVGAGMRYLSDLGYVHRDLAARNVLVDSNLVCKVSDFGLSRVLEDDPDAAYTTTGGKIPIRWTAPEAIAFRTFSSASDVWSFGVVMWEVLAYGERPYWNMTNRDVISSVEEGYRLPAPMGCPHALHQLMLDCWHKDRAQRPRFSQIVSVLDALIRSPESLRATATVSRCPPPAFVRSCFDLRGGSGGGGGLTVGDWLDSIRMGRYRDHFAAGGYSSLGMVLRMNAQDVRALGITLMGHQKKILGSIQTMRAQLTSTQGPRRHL

[3] = target: panel of 255 wild-type kinases (Homo sapiens, UniProt P49840); conditions: kinase GSK3α; 1 µmol/L single concentration; read-out: %-inhibition at 1 µmol/L, GSK3α
[4] = target: panel of 255 wild-type kinases (Homo sapiens, UniProt P11802); conditions: CDK4/CycD3 kinase assay; 1 µmol/L single concentration; read-out: %-inhibition CDK4/CycD3
[5] = target: panel of 255 wild-type kinases (Homo sapiens, UniProt P51617); conditions: kinase IRAK1; 1 µmol/L single concentration; read-out: %-inhibition at 1 µmol/L, IRAK1
[6] = target: panel of 255 wild-type kinases (Homo sapiens, UniProt P08581); conditions: MET; 1 µmol/L single concentration
[7] = target: panel of 255 wild-type kinases (Homo sapiens, UniProt Q9H2X6); conditions: kinase HIPK2; 1 µmol/L single concentration; read-out: %-inhibition at 1 µmol/L, HIPK2
[8] = target: T2, panel of 255 wild-type kinases (Homo sapiens, UniProt Q96L34); conditions: MARK4; 1 µmol/L single concentration; read-out: %-inhibition, MARK4
T2 sequence (Q96L34 1-752): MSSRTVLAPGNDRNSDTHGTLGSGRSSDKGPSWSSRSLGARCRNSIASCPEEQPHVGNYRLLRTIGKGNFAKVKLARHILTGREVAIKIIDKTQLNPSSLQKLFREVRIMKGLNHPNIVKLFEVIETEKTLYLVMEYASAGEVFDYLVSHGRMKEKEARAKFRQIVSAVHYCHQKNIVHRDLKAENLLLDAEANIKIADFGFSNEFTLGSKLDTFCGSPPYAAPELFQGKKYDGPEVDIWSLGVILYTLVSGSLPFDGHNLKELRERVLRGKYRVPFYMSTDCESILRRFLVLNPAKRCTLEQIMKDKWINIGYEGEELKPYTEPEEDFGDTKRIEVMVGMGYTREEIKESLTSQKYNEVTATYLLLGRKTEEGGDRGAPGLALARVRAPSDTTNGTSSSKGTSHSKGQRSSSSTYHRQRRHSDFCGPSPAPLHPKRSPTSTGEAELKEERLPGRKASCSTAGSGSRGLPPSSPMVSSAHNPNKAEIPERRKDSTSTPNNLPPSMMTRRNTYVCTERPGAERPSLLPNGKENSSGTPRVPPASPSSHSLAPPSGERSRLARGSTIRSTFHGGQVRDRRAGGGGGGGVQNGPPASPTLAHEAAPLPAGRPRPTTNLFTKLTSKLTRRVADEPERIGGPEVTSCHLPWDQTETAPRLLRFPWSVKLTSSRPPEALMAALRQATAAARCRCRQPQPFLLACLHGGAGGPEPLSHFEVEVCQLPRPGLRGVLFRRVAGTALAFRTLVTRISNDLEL

[9] = target: panel of 255 wild-type kinases (Homo sapiens, UniProt P09769); conditions: kinase FGR; 1 µmol/L single concentration; read-out: %-inhibition at 1 µmol/L, FGR
[10] = target: panel of 255 wild-type kinases (Homo sapiens, UniProt P22455); conditions: kinase FGFR4; 1 µmol/L single concentration; read-out: %-inhibition at 1 µmol/L, FGFR4
[11] = target: panel of 255 wild-type kinases (Homo sapiens, UniProt P24723); conditions: kinase PKCη; 1 µmol/L single concentration; read-out: %-inhibition at 1 µmol/L, PKCη
[12] = target: panel of 255 wild-type kinases (Homo sapiens, UniProt P49759); conditions: kinase CLK1; 1 µmol/L single concentration; read-out: %-inhibition at 1 µmol/L, CLK1

SMILES	inhibition at 1 µM [1] [%]	inhibition at 1 µM [2] [%]	inhibition at 1 µM [3] [%]	inhibition at 1 µM [4] [%]	inhibition at 1 µM [5] [%]	inhibition at 1 µM [6] [%]	inhibition at 1 µM [7] [%]	inhibition at 1 µM [8] [%]	inhibition at 1 µM [9] [%]	inhibition at 1 µM [10] [%]	inhibition at 1 µM [11] [%]	inhibition at 1 µM [12] [%]
O=C(Nc1cnn2ccc(N3CCC[C@@H]3c3cc(F)ccc3F)nc12)N1CC[C@H](O)C1 [larotrectinib]	-4	-9	-6.65	-0.745	-0.211	-4	-0.39	-6.42	2.55	6	1.58	5.31
C[C@H]1Oc2cc(cnc2N)-c2c(nn(C)c2C#N)CN(C)C(=O)c2ccc(F)cc21 [lorlatinib]	-6	6	-2.36	-7	10	4.66	-2	18	22	20	0.817	-2.47
CCN1C(=O)N(c2c(F)c(OC)cc(OC)c2F)Cc2cnc3[nH]c(CN4CCOCC4)cc3c21 [pemigatinib]	-3.56	-6	-5.3	9	-5.31	-2.49	2.55	52	17	100	5	5
CO[C@]1(C(=O)N[C@@H](C)c2ccc(-n3cc(F)cn3)nc2)CC[C@H](c2nc(C)cc(Nc3cc(C)[nH]n3)n2)CC1 [pralsetinib]	10	84	62	-1	9	5.27	11	-9	81	85	-3.21	32
CCn1c(=O)c(-c2cc(NC(=O)Nc3ccccc3)c(F)cc2Br)cc2cnc(NC)cc21 [ripretinib]	2.69	101	-0.0405	-1.19	-5.68	8	0.0334	-2.13	50	11	0.077	1
COc1ccc(CN2C3CC2CN(c2ccc(-c4cc(OCC(C)(C)O)cn5ncc(C#N)c45)cn2)C3)cn1 [selpercatinib]	-2.63	45	30	0.921	5	23	0.223	25	51	84	4.42	19
Cn1cnc2c(F)c(Nc3ccc(Br)cc3Cl)c(C(=O)NOCCO)cc21 [selumetinib]	-4	-12	-1.06	-1.85	-2.71	-0.807	2.71	-11	-0.332	6.37	-3.21	5
Cc1cc(Nc2ncnc3ccc(NC4=NC(C)(C)CO4)cc23)ccc1Oc1ccn2ncnc2c1 [tucatinib]	-0.548	-14	5.54	-2	4.63	5.33	6	-0.473	6	4	-5.44	7
C=CC(=O)N1CCC([C@@H]2CCNc3c(C(N)=O)c(-c4ccc(Oc5ccccc5)cc4)nn32)CC1 [zanubrutinib]	-4.62	-8	-7	-1.7	-2.53	-2.35	-0.321	-7.42	37	7.51	4.22	4.66
